Source: the supplement of paper PMC6045584
± gives the standard deviation of the averaged measurements.

Legend:
MLN-4924 = compound: NS(=O)(=O)OC[C@@H]1C[C@@H](n2ccc3c(N[C@H]4CCc5ccccc54)ncnc32)C[C@@H]1O [MLN-4924]; test: area under dose-response curve of surviving fraction (unscaled, Aref=0) (surviving fraction x log10(nM)); higher = more resistant; settings: exposure time: 5 days; dose range 0.5-1000 nM
How it was run: (§1)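 Surviving fractions were fitted by 3-parameter logistic regression in the drc R package to give dose-response survival curves. They came from tumour cell lines treated for five days with eight inhibitor concentrations from 0.5 to 1000 nM and read by CellTiter-Glo luminescence against DMSO-only wells. The area under the curve is the unscaled activity area. It was calculated over log10 dose with Aref = 0.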

TEMOZOLOMIDE = compound: Cn1nnc2c(C(N)=O)ncn2c1=O [TEMOZOLOMIDE]; test: as above; settings: exposure time: 5 days; dose range 0.5-1000 nM
How it was run: as §1

[1] = compound: CNCc1ccc(-c2[nH]c3cc(F)cc4c3c2CCNC4=O)cc1; test: as above; settings: exposure time: 5 days; dose range 0.5-1000 nM
How it was run: as §1

DASATINIB = compound: Cc1nc(Nc2ncc(C(=O)Nc3c(C)cccc3Cl)s2)cc(N2CCN(CCO)CC2)n1 [DASATINIB]; test: as above; settings: exposure time: 5 days; dose range 0.5-1000 nM
How it was run: as §1

[2] = compound: CNCc1ccc(-c2[nH]c3cc(F)cc4c3c2CCNC4=O)cc1; test: surviving fraction relative to DMSO-only wells; higher = less growth inhibition; settings: exposure time: 5 days
How it was run: (§2)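 Inhibitors were tested at 0.5, 1, 5, 10, 50, 100, 500 and 1000 nM, applied continuously for five days beginning 24 hours after log-phase tumour cells were seeded at 250–500 per well in 384-well plates. CellTiter-Glo luminescence served as the viability measure, expressed as surviving fraction against the median of DMSO-only wells. Each line, screened three times, was kept only with replicate Pearson r >0.7 and median Z' >0.3.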

ABIRATERONE = compound: C[C@]12CC[C@H](O)CC1=CC[C@@H]1[C@@H]2CC[C@]2(C)C(c3cccnc3)=CC[C@@H]12 [ABIRATERONE]; test: as above; settings: exposure time: 5 days
How it was run: as §2

| Test System | area under dose-response curve (MLN-4924) | area under dose-response curve (TEMOZOLOMIDE) | area under dose-response curve [1] | area under dose-response curve (DASATINIB) | surviving fraction ([2]; 0.5 nM) | surviving fraction ([2]; 1 nM) | surviving fraction ([2]; 5 nM) | surviving fraction ([2]; 10 nM) | surviving fraction ([2]; 50 nM) | surviving fraction ([2]; 100 nM) | surviving fraction ([2]; 500 nM) | surviving fraction ([2]; 1000 nM) | surviving fraction (ABIRATERONE; 0.5 nM) | surviving fraction (ABIRATERONE; 1 nM) | surviving fraction (ABIRATERONE; 5 nM) | surviving fraction (ABIRATERONE; 10 nM) | surviving fraction (ABIRATERONE; 50 nM) | surviving fraction (ABIRATERONE; 100 nM) | surviving fraction (ABIRATERONE; 500 nM) | surviving fraction (ABIRATERONE; 1000 nM) |
| --- | --- | --- | --- | --- | --- | --- | --- | --- | --- | --- | --- | --- | --- | --- | --- | --- | --- | --- | --- | --- |
| CCK81 LARGE INTESTINE | 2.47 | 2.52 | 2.66 | 1.86 | 0.829 ± 0.06 | 0.766 ± 0.13 | 0.861 ± 0.24 | 0.719 ± 0.12 | 0.789 ± 0.041 | 0.803 ± 0.058 | 0.914 ± 0.053 | 0.783 ± 0.023 |  |  |  |  |  |  |  |  |
| HMT3552 BREAST | 2.14 | 3.67 | 2.94 | 1.53 | 0.99 ± 0.063 | 0.968 ± 0.043 | 0.95 ± 0.031 | 1 ± 0.0095 | 0.817 ± 0.037 | 0.84 ± 0.022 | 0.78 ± 0.042 | 0.723 ± 0.079 | 1.05 | 1.02 | 1.01 | 1.09 | 1.08 | 1.07 | 1.32 | 1.24 |
| G292 BONE | 2.51 | 3.33 | 3.17 | 1.79 | 0.998 ± 0.075 | 0.981 ± 0.037 | 1.05 ± 0.053 | 0.975 ± 0.012 | 0.9877 ± 0.0081 | 0.932 ± 0.021 | 0.8 ± 0.044 | 0.775 ± 0.035 | 1.02 ± 0.028 | 0.994 ± 0.03 | 1.06 ± 0.037 | 1.04 ± 0.026 | 1.05 ± 0.038 | 1.05 ± 0.018 | 1.03 ± 0.034 | 1.01 ± 0.029 |
| HCC38 BREAST | 2.17 | 4.36 | 2.19 | 2.79 | 0.703 ± 0.16 | 0.805 ± 0.24 | 0.971 ± 0.31 | 0.705 ± 0.14 | 0.528 ± 0.1 | 0.607 ± 0.047 | 0.492 ± 0.22 | 0.45 ± 0.035 | 1.21 ± 0.22 | 1.24 ± 0.14 | 1.22 ± 0.31 | 1.29 ± 0.38 | 1.18 ± 0.41 | 1.32 ± 0.18 | 1.16 ± 0.12 | 1 ± 0.14 |
| HS578T BREAST | 2.37 | 3.09 | 2.93 | 1.56 | 0.959 ± 0.13 | 0.875 ± 0.042 | 0.912 ± 0.11 | 0.927 ± 0.17 | 0.892 ± 0.062 | 0.937 ± 0.067 | 0.763 ± 0.059 | 0.801 ± 0.13 | 1.06 ± 0.16 | 0.858 ± 0.12 | 0.945 ± 0.12 | 0.924 ± 0.2 | 1.04 ± 0.091 | 0.996 ± 0.051 | 0.985 ± 0.065 | 0.94 ± 0.037 |
| HMLE3 BREAST | 2.48 | 3.48 |  | 2.46 | 1.13 ± 0.039 | 1 ± 0.042 | 1.11 ± 0.051 | 1.07 ± 0.051 | 0.986 ± 0.17 | 1.03 ± 0.082 | 0.856 ± 0.14 | 0.879 ± 0.056 | 0.965 ± 0.017 | 1.01 ± 0.04 | 1.04 ± 0.063 | 1.04 ± 0.051 | 1.12 ± 0.079 | 1.02 ± 0.084 | 1.02 ± 0.063 | 1.04 ± 0.04 |
| HS57T BREAST |  |  |  |  | 0.972 ± 0.021 | 0.994 ± 0.063 | 1.03 ± 0.09 | 0.979 ± 0.055 | 0.929 ± 0.077 | 0.971 ± 0.06 | 0.881 ± 0.03 | 0.865 ± 0.038 | 1.06 ± 0.023 | 1.16 ± 0.059 | 1.12 ± 0.038 | 1.1 ± 0.03 | 1.24 ± 0.06 | 1.17 ± 0.071 | 1.08 ± 0.031 | 1.04 ± 0.1 |
| HCC70 BREAST | 2.21 | 3.54 | 3.67 | 2.81 | 1.07 ± 0.061 | 1.12 ± 0.037 | 1.16 ± 0.098 | 1.1 ± 0.11 | 1.12 ± 0.12 | 1.11 ± 0.017 | 1.12 ± 0.11 | 1.12 ± 0.052 | 1.1 ± 0.069 | 1.02 ± 0.088 | 1.09 ± 0.026 | 1.11 ± 0.055 | 1.15 ± 0.13 | 1.14 ± 0.017 | 1.03 ± 0.076 | 0.949 ± 0.098 |
